Consider twelve compounds from US20130096305A1, “[…] […]” (priority 2010, published 2013).

What is called EC50 is the concentration that produces a half-maximal response. A higher EC50 goes with a less potent agent.

The subject of the test is HIV-1 LAI envelope single-round infectious reporter virus. Briefly: Single-round infectious luciferase reporter virus infection of MT2 cells. The class given is cell-based. Particulars: Human immunodeficiency virus 1, MT2, 72 h. An excerpt: • Virus production—Human embryonic Kidney cell line, 293T (HEK 293T), was propagated in Dulbecco's Modified Eagle Medium (Invitrogen, Carlsbad, Calif.) containing 10% fetal Bovine serum (FBS, Sigma, St. Louis, Mo.). The human T-cell leukemia cell MT2 (AIDS Research and Reference Reagent Program, Cat. 237) was propagated in RPMI 1640 (Invitrogen, Carlsbad, Calif.) containing 10% fetal bovine serum (FBS, Hyclone, Logan, Utah) • Virus infection—Single-round infectious reporter virus was produced by co-transfecting HEK 293T cells with plasmide expressing the HIV-1 LAI envelope along with a plasmid containing an HIV-1 LAI proviral cDNA with the envelope gene replaced by a firefly luciferase reporter gene (Chen et al, Ref 41). Transfections were performed using lipofectAMINE PLUS reagent as described by the manufacturer (Invitrogen, Carlsbad, Calif.).
• 1. MT2 cells were plated in black, 384 well plates at a cell density of 5×10^3 cells per well in 25 μl RPMI 1640 containing 10% FBS. • 2. Compound (diluted in dimethylsulfoxide and growth medium) was added to cells at 12.5 μl/well, so that the final assay concentration would be ≦50 nM. • 3. 12.5 μl of single-round infectious reporter virus in Dulbecco's Modified Eagle Medium was added to the plated cells and compound at an approximate multiplicity of infection (MOI) of 0.01, resulting in a final volume of 50 μl per well. • 4. Virus-infected cells were incubated at 37 degrees Celsius, in a CO2 incubator, and harvested 72 h after infection. • 5. Viral infection was monitored by measuring luciferase expression in the infected cells using a luciferase reporter gene assay kit (Steady-Glo, Promega, Madison, Wis.) as described by the manufacturer. Luciferase activity was then quantified by measuring luminescence using an EnVision Multilabel Plate Readers (PerkinElmer, Waltham, Mass.). • 6. The percent inhibition for each compound was calculated by quantifying the level of luciferase expression in cells infected in the presence of each compound as a percentage of that observed for cells infected in the absence of compound and subtracting such a determined value from 100. • 7. An EC50 provides a method for comparing the antiviral potency of the compounds of this disclosure. The effective concentration for fifty percent inhibition (EC50) was calculated with the Microsoft Excel Xlfit curve fitting software. For each compound, curves were generated from percent inhibition calculated at 10 different concentrations by using a four paramenter logistic model (model 205).
(Reporter assays use an easily measured gene product as a stand-in for the process of interest.)
`[2H]c1c([2H])c([2H])c(C(=O)N2CCN(C(=O)C(=O)c3c[nH]c4c(OC)ncc(OC)c34)CC2)c([2H])c1[2H]` [Compound 0002] returned a half-maximal effective concentration (EC50) of 0.63 nM. The figure for `[2H]c1c([2H])c([2H])c(C(=O)N2CCN(C(=O)C(=O)c3c[nH]c4c(-n5cnc(C)n5)ncc(OC)c34)CC2)c([2H])c1[2H]` [Compound 0011] is 0.12 nM; for `[2H]C1([2H])N(C(=O)C(=O)c2c[nH]c3c(-n4ccnn4)ncc(F)c23)C([2H])([2H])C([2H])([2H])N(C(=O)c2ccccc2)C1([2H])[2H]` [Compound 0009] it is 0.14 nM. The figure for `[2H]C1([2H])N(C(=O)C(=O)c2c[nH]c3c(-n4cnc(C)n4)ncc(OC)c23)C([2H])([2H])C([2H])([2H])N(C(=O)c2ccccc2)C1([2H])[2H]` [Compound 0012] is 0.07 nM. The figure for `[2H]c1c([2H])c([2H])c(C(=O)N2C([2H])([2H])C([2H])([2H])N(C(=O)C(=O)c3c[nH]c4c(-n5ccnn5)ncc(F)c34)C([2H])([2H])C2([2H])[2H])c([2H])c1[2H]` [Compound 0007] is 0.11 nM; for `[2H]c1c([2H])c([2H])c(C(=O)N2C([2H])([2H])C([2H])([2H])N(C(=O)C(=O)c3c[nH]c4c(-n5cnc(C)n5)ncc(OC)c34)C([2H])([2H])C2([2H])[2H])c([2H])c1[2H]` [Compound 0010] it is 0.06 nM.

On to `[2H]c1c([2H])c([2H])c(C(=O)N2C([2H])([2H])C([2H])([2H])N(C(=O)C(=O)c3c[nH]c4c(OC)ncc(OC)c34)C([2H])([2H])C2([2H])[2H])c([2H])c1[2H]` [Compound 0001], for which the concentration for a half-maximal effect (EC50) came to 0.67 nM.

`[2H]C1([2H])N(C(=O)C(=O)c2c[nH]c3c(-n4ccnn4)ncc(OC)c23)C([2H])([2H])C([2H])([2H])N(C(=O)c2ccccc2)C1([2H])[2H]` [Compound 0006] registered a 50% effective concentration (EC50) of 0.08 nM.

Regarding `[2H]c1c([2H])c([2H])c(C(=O)N2CCN(C(=O)C(=O)c3c[nH]c4c(-n5ccnn5)ncc(F)c34)CC2)c([2H])c1[2H]` [Compound 0008], the midpoint of the response, the EC50, lay at 0.1 nM. Consider `[2H]C1([2H])N(C(=O)C(=O)c2c[nH]c3c(OC)ncc(OC)c23)C([2H])([2H])C([2H])([2H])N(C(=O)c2ccccc2)C1([2H])[2H]` [Compound 0003], for which the EC50 stood at 0.55 nM. For the compound `[2H]c1c([2H])c([2H])c(C(=O)N2C([2H])([2H])C([2H])([2H])N(C(=O)C(=O)c3c[nH]c4c(-n5ccnn5)ncc(OC)c34)C([2H])([2H])C2([2H])[2H])c([2H])c1[2H]` [Compound 0004], the EC50 is 0.1 nM. As for `[2H]c1c([2H])c([2H])c(C(=O)N2CCN(C(=O)C(=O)c3c[nH]c4c(-n5ccnn5)ncc(OC)c34)CC2)c([2H])c1[2H]` [Compound 0005], the figure is 0.24 nM.
